Legend:
[1] = molecular target: human JAK1 (Homo sapiens, UniProt P23458); assay: In vitro JAK kinase assay (HTRF, Example A); type: biochemical; conditions: 1 mM ATP
Protocol: (§1) The catalytic activity of JAK1, JAK2 or JAK3 was assayed by measuring the phosphorylation of a biotinylated peptide. The phosphorylated peptide was detected by homogenous time resolved fluorescence (HTRF). […] Reactions were carried out at room temperature for 1 hour and then stopped with 20 μL 45 mM EDTA, 300 nM SA-APC, 6 nM Eu-Py20 in assay buffer (Perkin Elmer, Boston, MA). Binding to the Europium labeled antibody took place for 40 minutes and HTRF signal was measured on a Fusion plate reader (Perkin Elmer, Boston, MA).

[2] = molecular target: human JAK2 (Homo sapiens (Human), UniProt O60674); assay: In vitro JAK kinase assay (HTRF, Example A); type: biochemical; conditions: JAK2/JAK1 IC50 ratio, 1 mM ATP
human JAK2, sequence (O60674 828-1132): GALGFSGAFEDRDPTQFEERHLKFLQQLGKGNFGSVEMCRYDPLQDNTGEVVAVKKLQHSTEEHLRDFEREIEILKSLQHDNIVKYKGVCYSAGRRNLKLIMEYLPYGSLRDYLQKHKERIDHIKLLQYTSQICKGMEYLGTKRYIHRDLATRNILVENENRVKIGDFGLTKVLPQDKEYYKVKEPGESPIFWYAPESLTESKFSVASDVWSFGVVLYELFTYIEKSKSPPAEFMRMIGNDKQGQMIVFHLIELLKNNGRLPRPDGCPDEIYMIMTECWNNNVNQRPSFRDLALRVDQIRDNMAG
Protocol: as §1

| SMILES | IC50 [1] [nM] | JAK2/JAK1 [2] |
| --- | --- | --- |
| N#CC[C@]1(n2cc(-c3ncnc4[nH]ccc34)cn2)C[C@H](N2CCC(Oc3cc(CN4CCC[C@H]4CO)cc(C(F)(F)F)n3)CC2)C1 [Compound 12, {trans-3-(4-{[4-{[(2S)-2-(hydroxymethyl)pyrrolidin-1-yl]methyl}-6-(trifluoromethyl)pyridin-2-yl]oxy}piperidin-1-yl)-1-[4-(7H-pyrrolo[2,3-d]pyrimidin-4-yl)-1H-pyrazol-1-yl]cyclobutyl}acetonitrile] | < 10 | >10 |
| C[C@H](O)CNCc1cc(OC2CCN([C@H]3C[C@](CC#N)(n4cc(-c5ncnc6[nH]ccc56)cn4)C3)CC2)nc(C(F)(F)F)c1 [Compound 25, {trans-3-(4-{[4-({[(2S)-2-hydroxypropyl]amino}meth-yl)-6-(trifluoromethyl)pyridin-2-yl]oxy}piperidin-1-yl)-1-[4-(7H-pyrrolo[2,3-d]pyrimidin-4-yl)-1H-pyrazol-1-yl]cyclobutyl}acetonitrile] | < 10 | >10 |
| C[C@H](NC(=O)c1cc(F)c(N2CC(CC#N)(n3cc(-c4ncnc5[nH]ccc45)cn3)C2)cc1F)C(F)(F)F [Compound 16, 4-{3-(cyanomethyl)-3-[4-(7H-pyrrolo[2,3-d]pyrimidin-4-yl)-1H-pyrazol-1-yl]azetidin-1-yl}-2,5-difluoro-N-[(1S)-2,2,2-trifluoro-1-methylethyl]benzamide] | < 10 | >10 |
| N#CCC(C1CCN(c2nc3cccnc3o2)C1)n1cc(-c2ncnc3[nH]ccc23)cn1 (centres unmarked) [Compound 7, 3-(1-[1,3]oxazolo[5,4-b]pyridin-2-ylpyrrolidin-3-yl)-3-[4-(7H-pyrrolo[2,3-d]pyrimidin-4-yl)-1H-pyrazol-1-yl]propanenitrile] | < 10 | >10 |
| N#CCC(CN1CCN(C(=O)c2ccc(C#N)cc2F)CC1)n1ccc(-c2ncnc3[nH]ccc23)c1 (centres unmarked) [Compound 9, 4-[(4-{3-cyano-2-[3-(7H-pyrrolo[2,3-d]pyrimidin-4-yl)-1H-pyrrol-1-yl]propyl}piperazin-1-yl)carbonyl]-3-fluorobenzonitrile] | < 10 | >10 |
| N#CCC(C1CCN(c2cccc(Cl)n2)C1)n1cc(-c2ncnc3[nH]ccc23)cn1 (single isomer, unassigned) [Compound 6, 3-[1-(6-chloropyridin-2-yl)pyrrolidin-3-yl]-3-[4-(7H-pyrrolo[2,3-d]pyrimidin-4-yl)-1H-pyrazol-1-yl]propanenitrile] | < 10 | >10 |
| N#CC[C@]1(n2cc(-c3ncnc4[nH]ccc34)cn2)C[C@H](N2CCN(C(=O)c3ccnc(C(F)(F)F)n3)CC2)C1 [Compound 10, [trans-1-[4-(7H-pyrrolo[2,3-d]pyrimidin-4-yl)-1H-pyrazol-1-yl]-3-(4-{[2-(trifluoromethyl)pyrimidin-4-yl]carbonyl}piperazin-1-yl)cyclobutyl]acetonitrile] | < 10 | >10 |
| N#CC[C@]1(n2cc(-c3ncnc4[nH]ccc34)cn2)C[C@H](N2CCC(Oc3cc(CCO)cc(C(F)(F)F)n3)CC2)C1 [Compound 26, {trans-3-(4-{[4-(2-hydroxyethyl)-6-(trifluoromethyl)pyridin-2-yl]oxy}piperidin-1-yl)-1-[4-(7H-pyrrolo[2,3-d]pyrimidin-4-yl)-1H-pyrazol-1-yl]cyclobutyl}acetonitrile] | < 10 | >10 |
| N#CCC1(n2cc(-c3ncnc4[nH]ccc34)cn2)CN([C@H]2CC[C@@H](Oc3cc(CN4CC[C@H](O)C4)cc(C(F)(F)F)n3)CC2)C1 [Compound 22, {1-(cis-4-{[4-{[(3S)-3-hydroxypyrrolidin-1-yl]methyl}-6-(trifluoromethyl)pyridin-2-yl]oxy}cyclohexyl)-3-[4-(7H-pyrrolo[2,3-d]pyrimidin-4-yl)-1H-pyrazol-1-yl]azetidin-3-yl}acetonitrile] | < 10 | >10 |
| N#CCC1(n2cc(-c3ncnc4[nH]ccc34)cn2)CN(C2CCN(C(=O)c3ccnc(C(F)(F)F)n3)CC2)C1 [Compound 3, [3-[4-(7H-pyrrolo[2,3-d]pyrimidin-4-yl)-1H-pyrazol-1-yl]-1-(1-{[2-(trifluoromethyl)pyrimidin-4-yl]carbonyl}piperidin-4-yl)azetidin-3-yl]acetonitrile] | < 10 | >10 |
| N#CCC(CN1CCN(C(=O)c2ccc(C#N)cc2F)CC1)n1cc(-c2ncnc3[nH]ccc23)cn1 (centres unmarked) [Compound 8, 4-[(4-{3-cyano-2-[4-(7H-pyrrolo[2,3-d]pyrimidin-4-yl)-1H-pyrazol-1-yl]propyl}piperazin-1-yl)carbonyl]-3-fluorobenzonitrile] | < 10 | >10 |
| N#CCC1(n2cc(-c3ncnc4[nH]ccc34)cn2)CN([C@H]2CC[C@@H](Oc3cc(CN4CC[C@@H](O)C4)cc(C(F)(F)F)n3)CC2)C1 [Compound 21, {1-(cis-4-{[4-{[(3R)-3-hydroxypyrrolidin-1-yl]methyl}-6-(trifluoromethyl)pyridin-2-yl]oxy}cyclohexyl)-3-[4-(7H-pyrrolo[2,3-d]pyrimidin-4-yl)-1H-pyrazol-1-yl]azetidin-3-yl}acetonitrile] | < 10 | >10 |
| C[C@@H](O)CNCc1cc(OC2CCN([C@H]3C[C@](CC#N)(n4cc(-c5ncnc6[nH]ccc56)cn4)C3)CC2)nc(C(F)(F)F)c1 [Compound 24, {trans-3-(4-{[4-({[(2R)-2-hydroxypropyl]amino}meth-yl)-6-(trifluoromethyl)pyridin-2-yl]oxy}piperidin-1-yl)-1-[4-(7H-pyrrolo[2,3-d]pyrimidin-4-yl)-1H-pyrazol-1-yl]cyclobutyl}acetonitrile] | < 10 | >10 |
| N#CCC1(n2cc(-c3ncnc4[nH]ccc34)cn2)CN(C2CCN(C(=O)Nc3ccc(F)cc3C(F)(F)F)CC2)C1 [Compound 2, 4-{3-(Cyanomethyl)-3-[4-(7H-pyrrolo[2,3-d]pyrimidin-4-yl)-1H-pyrazol-1-yl]azetidin-1-yl}-N-[4-fluoro-2-(trifluoromethyl)phenyl]pipe-ridine-1-carboxamide] | < 10 | >10 |
| N#CC[C@]1(n2cc(-c3ncnc4[nH]ccc34)cn2)C[C@H](N2CCC(Oc3cc(CN4CCC[C@@H]4CO)cc(C(F)(F)F)n3)CC2)C1 [Compound 13, {trans-3-(4-{[4-{[(2R)-2-(hydroxymethyl)pyrrolidin-1-yl]methyl}-6-(trifluoromethyl)pyridin-2-yl]oxy}piperidin-1-yl)-1-[4-(7H-pyrrolo[2,3-d]pyrimidin-4-yl)-1H-pyrazol-1-yl]cyclobutyl}acetonitrile] | < 10 | >10 |
| CC(C)(O)c1cc(O[C@H]2CC[C@@H](N3CC(CC#N)(n4cc(-c5ncnc6[nH]ccc56)cn4)C3)CC2)nc(C(F)(F)F)c1 [Compound 20, {1-(cis-4-{[4-(1-hydroxy-1-methylethyl)-6-(trifluoromethyl)pyridin-2-yl]oxy}cyclohexyl)-3-[4-(7H-pyrrolo[2,3-d]pyrimidin-4-yl)-1H-pyrazol-1-yl]azetidin-3-yl}acetonitrile] | < 10 | >10 |
| N#CCC1(n2cc(-c3ncnc4[nH]ccc34)cn2)CN([C@H]2CC[C@@H](Oc3cc(CCO)nc(C(F)(F)F)n3)CC2)C1 [Compound 18, {1-(cis-4-{[6-(2-hydroxyethyl)-2-(trifluoromethyl)pyrimidin-4-yl]oxy}cyclohexyl)-3-[4-(7H-pyrrolo[2,3-d]pyrimidin-4-yl)-1H-pyrazol-1-yl]azetidin-3-yl}acetonitrile] | < 10 | >10 |
| N#CCC1(n2cc(-c3ncnc4[nH]ccc34)cn2)CN(C2CCN(C(=O)c3ccnc(C(F)(F)F)c3F)CC2)C1 [Compound 4, {1-{1-[3-Fluoro-2-(trifluoromethyl)isonicotinoyl]piperidin-4-yl}-3-[4-(7H-pyrrolo[2,3-d]pyrimidin-4-yl)-1H-pyrazol-1-yl]azetidin-3-yl}acetonitrile] | < 10 | >10 |
| N#CC[C@]1(n2cc(-c3ncnc4[nH]ccc34)cn2)C[C@H](N2CCC(Oc3cc(CN4CC(O)C4)cc(C(F)(F)F)n3)CC2)C1 [Compound 11, {trans-3-(4-{[4-[(3-hydroxyazetidin-1-yl)methyl]-6-(trifluoromethyl)pyridin-2-yl]oxy}piperidin-1-yl)-1-[4-(7H-pyrrolo[2,3-d]pyrimidin-4-yl)-1H-pyrazol-1-yl]cyclobutyl}acetonitrile] | < 10 | >10 |
| C[C@@H](CO)NCc1cc(OC2CCN([C@H]3C[C@](CC#N)(n4cc(-c5ncnc6[nH]ccc56)cn4)C3)CC2)nc(C(F)(F)F)c1 [Compound 23, {trans-3-(4-{[4-({[(1S)-2-hydroxy-1-methylethyl]amino}methyl)-6-(trifluoromethyl)pyridin-2-yl]oxy}piperidin-1-yl)-1-[4-(7H-pyrrolo[2,3-d]pyrimidin-4-yl)-1H-pyrazol-1-yl]cyclobutyl}acetonitrile] | < 10 | >10 |
| CCNCc1cc(O[C@H]2CC[C@@H](N3CC(CC#N)(n4cc(-c5ncnc6[nH]ccc56)cn4)C3)CC2)nc(C(F)(F)F)c1 [Compound 19, {1-(cis-4-{[4-[(ethylamino)methyl]-6-(trifluoromethyl)pyridin-2-yl]oxy}cyclohexyl)-3-[4-(7H-pyrrolo[2,3-d]pyrimidin-4-yl)-1H-pyrazol-1-yl]azetidin-3-yl}acetonitrile] | < 10 | >10 |
| C[C@@H](O)c1nc2cnc3ccsc3c2n1[C@H]1CC[C@H](CC#N)OC1 [Compound 5, ((2R,5S)-5-{2-[(1R)-1-hydroxyethyl]-1H-imidazo[4,5-d]thieno[3,2-b]pyridin-1-yl}tetrahydro-2H-pyran-2-yl)acetonitrile] | < 100 | >10 |
